Data as given in patent US8067424B2, “Selective inhibitors for cyclin-dependent kinases” (Emory University, priority 2007, dated 2011).
Where two headings read alike, the source gives them in different places.

How the values were obtained:
Assay type in all cases: biochemical
[1] = biological target: T1, SGK1 (Homo sapiens, UniProt O00141); experiment: Kinase screen: SGK assay
T1 sequence (O00141 1-431): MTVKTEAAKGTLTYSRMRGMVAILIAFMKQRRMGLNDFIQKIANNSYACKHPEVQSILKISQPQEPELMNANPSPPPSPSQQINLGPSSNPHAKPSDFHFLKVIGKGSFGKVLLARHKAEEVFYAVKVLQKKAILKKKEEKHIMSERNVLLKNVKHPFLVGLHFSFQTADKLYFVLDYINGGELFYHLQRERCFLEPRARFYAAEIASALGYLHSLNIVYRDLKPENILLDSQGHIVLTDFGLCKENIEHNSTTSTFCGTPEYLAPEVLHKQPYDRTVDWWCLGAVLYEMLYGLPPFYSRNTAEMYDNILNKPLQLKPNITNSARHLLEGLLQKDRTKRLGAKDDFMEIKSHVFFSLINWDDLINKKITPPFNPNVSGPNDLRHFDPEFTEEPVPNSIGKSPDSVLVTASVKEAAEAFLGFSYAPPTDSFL
Experimental: (§1) Generally, the same procedure was used for all assays. Since the total assay volume was 25.5 microliters, 0.5 microliters of inhibitors at 51× assay concentration were added to the plates before any other addition.
(§2) The basic procedure was to add 0.5 microliters inhibitor/control in DMSO to plate. Fifteen microliters of enzyme/substrate/buffer mix were added and incubated for 5 min. Ten microliters MgATP at the relevant concentration were added and incubated for 30 min. The assay was stopped by adding 5 microliters of 3% orthophosphoric acid. The assay was transferred to a p81 filter plate and read in a scintillation counter of 30 sec/well. Note that this assay procedure was not followed for MKK1, which instead involved a two-step assay, and PKC alpha, which required the addition of lipid vesicles.
SGK assay: SGK (5-20 mU diluted in 20 mM MOPS pH 7.5, 1 mM EDTA, 0.01% Brij35, 5% glycerol, 0.1% b-mercaptoethanol, 1 mg/ml BSA) was assayed against a modified Crosstide peptide […] (SEQ ID NO: 4) in a final volume of 25.5 μl containing 8 mM MOPS pH 7.0, 0.2 mM EDTA, 30 μM substrate peptide, 10 mM magnesium acetate and 0.02 mM [33P-g-ATP] (50-1000 cpm/pmole) and incubated for 30 min at room temperature. Assays were stopped by addition of 5 μl of 0.5 M (3%) orthophosphoric acid and then harvested onto P81 Unifilter plates with a wash buffer of 50 mM orthophosphoric acid.

[2] = biological target: p38α MAPK (Homo sapiens, UniProt Q16539); experiment: Kinase screen: SAPK 2a/p38 assay
Experimental: as §1, §2
SAPK 2a/p38 assay: SAPK 2a/p38 (5-20 mU diluted in 50 mM Tris pH 7.5, 0.1 mM EGTA, 0.1 mM Na3VO4, 0.1% b-mercaptoethanol, 1 mg/ml BSA) was assayed against MBP in a final volume of 25.5 μl containing 25 mM Tris pH 7.5, 0.1 mM EGTA, 0.33 mg/ml MBP, 10 mM magnesium acetate and 0.05 mM [33P-g-ATP] (50-1000 cpm/pmole) and incubated for 30 min at room temperature. Assays were stopped by addition of 5 μl of 0.5 M (3%) orthophosphoric acid and then harvested onto P81 Unifilter plates with a wash buffer of 50 mM orthophosphoric acid.

[3] = biological target: MNK2 (Homo sapiens, UniProt Q9HBH9); experiment: Kinase screen: MNK2 alpha assay
Experimental: as §1, §2
MNK2 alpha assay: 5-20 mU of MNK2 (diluted in 50 mM Tris (pH 7.5), 0.1 mM EGTA, 1 mg/ml BSA, 0.1%, b-Mercaptoethanol) was assayed against substrate peptide (eIF4E) in a final volume of 25.5 μl containing 50 mM Tris (pH 7.5), 0.1 mM EGTA, 0.1%, b-Mercaptoethanol, 0.5 mg/ml substrate peptide, 10 mM magnesium acetate and 0.05 mM [33P-g-ATP](500-1000 cpm/pmole) and incubated for 30 mins at room temperature. Assays were stopped by addition of 5 μl of 0.5M (3%) orthophosphoric acid. Assays were harvested onto P81 Unifilter plates using a wash buffer of 50 mM orthophosphoric acid.

[4] = biological target: IRR (Homo sapiens, UniProt P14616); experiment: Kinase screen: IRR assay; conditions: 10 micromolar compound; for remaining activity at 10 µM: read-out: mean activity remaining (as a percentage of the original activity), IRR
Experimental: as §1, §2
IRR assay: 5-20 mU of IRR (diluted in 50 mM Hepes (pH 7.5), 0.1 mM EGTA) was assayed against MBP in a final volume of 25.5 μl containing 50 mM Hepes (pH 7.5), 0.1 mM EGTA, 0.33 mg/ml MBP, 10 mM magnesium acetate and 0.005 mM [33P-g-ATP](500-1000 cpm/pmole) and incubated for 30 mins at room temperature. Assays were stopped by addition of 5 μl of 0.5M (3%) orthophosphoric acid. Assays were harvested onto P81 Unifilter plates using a wash buffer of 50 mM orthophosphoric acid.

[5] = 10 micromolar compound, read-out: mean activity remaining (as a percentage of the original activity), SGK1
[6] = 10 micromolar compound, read-out: mean activity remaining (as a percentage of the original activity), p38a2 MAPK
[7] = 10 micromolar compound, read-out: mean activity remaining (as a percentage of the original activity), MNK2

Sequence of IRR (P14616 27-1297, species assumed): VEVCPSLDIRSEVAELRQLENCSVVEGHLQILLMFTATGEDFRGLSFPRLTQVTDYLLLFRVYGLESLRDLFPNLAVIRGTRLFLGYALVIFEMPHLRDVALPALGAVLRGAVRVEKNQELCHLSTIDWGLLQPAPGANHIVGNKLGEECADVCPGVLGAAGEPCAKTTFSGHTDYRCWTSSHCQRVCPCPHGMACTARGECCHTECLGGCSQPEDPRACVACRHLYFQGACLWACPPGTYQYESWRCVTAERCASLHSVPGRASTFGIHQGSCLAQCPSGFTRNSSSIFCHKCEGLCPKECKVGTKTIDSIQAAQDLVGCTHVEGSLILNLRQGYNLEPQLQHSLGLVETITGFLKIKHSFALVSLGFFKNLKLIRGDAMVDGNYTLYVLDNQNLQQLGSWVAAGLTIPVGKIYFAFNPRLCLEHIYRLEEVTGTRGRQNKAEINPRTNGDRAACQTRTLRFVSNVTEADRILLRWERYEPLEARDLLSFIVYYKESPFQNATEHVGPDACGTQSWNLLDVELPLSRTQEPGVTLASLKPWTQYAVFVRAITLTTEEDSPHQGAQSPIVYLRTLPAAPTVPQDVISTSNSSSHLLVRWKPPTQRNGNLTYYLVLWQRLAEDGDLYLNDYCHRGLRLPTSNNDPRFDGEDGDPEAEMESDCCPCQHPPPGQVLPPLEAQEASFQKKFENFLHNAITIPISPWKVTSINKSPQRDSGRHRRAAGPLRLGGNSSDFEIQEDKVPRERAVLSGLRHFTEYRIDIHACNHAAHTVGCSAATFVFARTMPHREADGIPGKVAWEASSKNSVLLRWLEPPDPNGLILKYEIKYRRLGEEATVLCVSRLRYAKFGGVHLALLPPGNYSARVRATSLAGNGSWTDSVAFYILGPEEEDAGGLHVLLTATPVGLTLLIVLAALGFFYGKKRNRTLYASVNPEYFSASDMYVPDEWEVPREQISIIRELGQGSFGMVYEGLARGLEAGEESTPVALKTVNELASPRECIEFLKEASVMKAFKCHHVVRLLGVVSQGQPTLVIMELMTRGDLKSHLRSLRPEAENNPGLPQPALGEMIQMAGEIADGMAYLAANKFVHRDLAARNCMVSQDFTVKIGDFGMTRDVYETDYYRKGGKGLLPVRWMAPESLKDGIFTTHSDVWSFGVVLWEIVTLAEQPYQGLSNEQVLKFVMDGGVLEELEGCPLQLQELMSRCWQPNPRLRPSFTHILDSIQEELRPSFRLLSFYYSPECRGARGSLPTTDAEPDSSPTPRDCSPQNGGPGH
Sequence of MNK2 (Q9HBH9 whole entry, species assumed): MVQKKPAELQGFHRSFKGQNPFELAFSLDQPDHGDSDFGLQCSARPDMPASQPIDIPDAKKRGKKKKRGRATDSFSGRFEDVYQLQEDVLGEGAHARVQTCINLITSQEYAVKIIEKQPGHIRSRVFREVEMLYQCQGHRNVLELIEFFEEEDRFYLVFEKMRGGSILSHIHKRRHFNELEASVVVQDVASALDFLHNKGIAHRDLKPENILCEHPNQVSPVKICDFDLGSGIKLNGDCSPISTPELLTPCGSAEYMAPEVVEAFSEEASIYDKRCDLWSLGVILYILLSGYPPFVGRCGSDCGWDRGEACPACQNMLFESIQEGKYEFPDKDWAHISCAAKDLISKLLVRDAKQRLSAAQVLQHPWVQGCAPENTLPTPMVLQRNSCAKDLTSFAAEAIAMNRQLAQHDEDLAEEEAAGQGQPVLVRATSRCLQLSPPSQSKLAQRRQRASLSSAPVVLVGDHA
Sequence of p38α MAPK (Q16539 whole entry): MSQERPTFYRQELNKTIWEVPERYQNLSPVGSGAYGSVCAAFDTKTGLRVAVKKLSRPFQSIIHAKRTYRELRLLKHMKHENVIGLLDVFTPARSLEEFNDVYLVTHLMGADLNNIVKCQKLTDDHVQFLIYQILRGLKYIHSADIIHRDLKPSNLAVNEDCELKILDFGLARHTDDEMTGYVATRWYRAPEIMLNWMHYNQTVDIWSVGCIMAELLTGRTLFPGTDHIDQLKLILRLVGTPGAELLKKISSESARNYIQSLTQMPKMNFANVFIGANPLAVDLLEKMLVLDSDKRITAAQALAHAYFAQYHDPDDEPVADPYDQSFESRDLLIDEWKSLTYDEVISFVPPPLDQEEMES

Structure (SMILES)	remaining activity at 10 µM [4] [%]	remaining activity at 10 µM [1, 5] [%]	remaining activity at 10 µM [2, 6] [%]	remaining activity at 10 µM [3, 7] [%]	other results
CC(C)c1cnn2c(NCc3ccccc3)cc(NCCCCCCCN)nc12 [BS-181]	–	–	–	–	remaining activity at 10 µM ([1]; SGK1, 10 μM, read-out: Mean Remaining Enzyme Activity (%)): 42%; remaining activity at 10 µM ([2]; p38α MAPK, 10 μM, read-out: Mean Remaining Enzyme Activity (%)): 95%; remaining activity at 10 µM ([3]; MNK2, 10 μM, read-out: Mean Remaining Enzyme Activity (%)): 105%
C=C[C@H](CO)Nc1cc(NCc2ccccc2)n2ncc(C(C)C)c2n1 [ICEC0065]	24	84	94	83	–
CC[C@H](CO)Nc1cc(NCc2ccccc2)n2ncc(C(C)C)c2n1 [ICEC0067]	23	89	99	84	–
CC(C)c1cnn2c(NCc3ccccc3)cc(N[C@@H](CO)[C@H](O)CO)nc12 [ICEC0318, (3S)-3-(7-(Benzylamino)-3-isopropylpyrazolo[1,5-a]pyrimidin-5-ylamino)butane-1,2,4-triol]	32	92	98	136	–
CC(C)c1cnn2c(NCc3ccccc3F)cc(NCCCCCN)nc12 [ICEC-0232]	–	–	–	–	mean activity remaining (as a percentage of the original activity), IRR [4]: 29%; mean activity remaining (as a percentage of the original activity), SGK1 ([1]; 10 micromolar compound): 50%; mean activity remaining (as a percentage of the original activity), p38a2 MAPK ([2]; 10 micromolar compound): 86%; mean activity remaining (as a percentage of the original activity), MNK2 ([3]; 10 micromolar compound): 88%
